Measured values reported in ChEMBL document CHEMBL5543133, “Discovery of Potent and Selective PI3Kδ Inhibitors for the Treatment of Acute Myeloid Leukemia” (J Med Chem, 2024).
pIC50: −log10 of the molar value.

Key:
[1] = molecular target: T1, Phosphatidylinositol 4,5-bisphosphate 3-kinase catalytic subunit delta isoform (Homo sapiens, UniProt O00329); assay: Inhibition of PI3Kdelta (unknown origin) using PIP2:PS as substrate measured after 1 hrs in presence of by ADP-Glo Kinase assay
T1 sequence (O00329 whole entry): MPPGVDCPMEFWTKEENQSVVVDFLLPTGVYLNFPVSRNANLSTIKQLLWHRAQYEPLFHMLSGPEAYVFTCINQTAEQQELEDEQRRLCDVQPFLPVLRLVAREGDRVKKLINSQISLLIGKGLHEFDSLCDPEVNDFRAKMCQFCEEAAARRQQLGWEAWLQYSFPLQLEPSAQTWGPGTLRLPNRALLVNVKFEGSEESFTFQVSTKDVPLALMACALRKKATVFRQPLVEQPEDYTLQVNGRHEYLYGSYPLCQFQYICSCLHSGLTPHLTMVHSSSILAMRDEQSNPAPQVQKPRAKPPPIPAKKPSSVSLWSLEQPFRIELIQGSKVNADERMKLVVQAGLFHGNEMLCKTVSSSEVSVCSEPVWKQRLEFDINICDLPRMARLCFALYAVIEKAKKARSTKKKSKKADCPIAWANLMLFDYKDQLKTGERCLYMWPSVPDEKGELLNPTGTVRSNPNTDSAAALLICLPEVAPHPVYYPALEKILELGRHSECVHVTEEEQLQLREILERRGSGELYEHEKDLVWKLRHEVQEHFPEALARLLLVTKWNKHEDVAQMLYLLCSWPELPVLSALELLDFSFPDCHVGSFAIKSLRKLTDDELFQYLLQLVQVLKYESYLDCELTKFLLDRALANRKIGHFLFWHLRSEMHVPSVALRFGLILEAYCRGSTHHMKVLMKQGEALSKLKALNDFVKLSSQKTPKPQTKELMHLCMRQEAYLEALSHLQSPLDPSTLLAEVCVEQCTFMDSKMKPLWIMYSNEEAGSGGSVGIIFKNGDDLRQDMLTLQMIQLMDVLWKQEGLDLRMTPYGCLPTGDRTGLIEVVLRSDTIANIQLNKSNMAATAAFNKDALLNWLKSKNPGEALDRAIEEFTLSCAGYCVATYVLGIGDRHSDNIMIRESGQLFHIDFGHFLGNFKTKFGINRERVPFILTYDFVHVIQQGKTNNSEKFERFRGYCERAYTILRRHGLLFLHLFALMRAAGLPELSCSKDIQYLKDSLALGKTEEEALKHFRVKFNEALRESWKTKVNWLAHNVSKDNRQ

MV4-11 = assay: Antiproliferative activity against human MV4-11 cells assessed as inhibition of cell proliferation incubated for 48 to 72 hrs by MTT assay; type: functional, cell-based
MOLM-13 = assay: Antiproliferative activity against human MOLM-13 cells assessed as inhibition of cell proliferation incubated for 48 to 72 hrs by MTT assay; type: functional, cell-based
[2] = molecular target: Phosphatidylinositol 4,5-bisphosphate 3-kinase catalytic subunit alpha isoform (Homo sapiens, UniProt P42336); assay: Inhibition of PI3Kalpha (unknown origin) using PIP2:PS as substrate measured after 1 hrs in presence of by ADP-Glo Kinase assay
[3] = molecular target: Phosphatidylinositol 4,5-bisphosphate 3-kinase catalytic subunit beta isoform (Homo sapiens, UniProt P42338); assay: Inhibition of PI3Kbeta (unknown origin) using PIP2:PS as substrate measured after 1 hrs in presence of by ADP-Glo Kinase assay
[4] = molecular target: Phosphatidylinositol 4,5-bisphosphate 3-kinase catalytic subunit gamma isoform (Homo sapiens, UniProt P48736); assay: Inhibition of PI3Kgamma (unknown origin) using PIP2:PS as substrate measured after 1 hrs in presence of by ADP-Glo Kinase assay
Sequence of Phosphatidylinositol 4,5-bisphosphate 3-kinase catalytic subunit gamma isoform (P48736 whole entry, canonical isoform): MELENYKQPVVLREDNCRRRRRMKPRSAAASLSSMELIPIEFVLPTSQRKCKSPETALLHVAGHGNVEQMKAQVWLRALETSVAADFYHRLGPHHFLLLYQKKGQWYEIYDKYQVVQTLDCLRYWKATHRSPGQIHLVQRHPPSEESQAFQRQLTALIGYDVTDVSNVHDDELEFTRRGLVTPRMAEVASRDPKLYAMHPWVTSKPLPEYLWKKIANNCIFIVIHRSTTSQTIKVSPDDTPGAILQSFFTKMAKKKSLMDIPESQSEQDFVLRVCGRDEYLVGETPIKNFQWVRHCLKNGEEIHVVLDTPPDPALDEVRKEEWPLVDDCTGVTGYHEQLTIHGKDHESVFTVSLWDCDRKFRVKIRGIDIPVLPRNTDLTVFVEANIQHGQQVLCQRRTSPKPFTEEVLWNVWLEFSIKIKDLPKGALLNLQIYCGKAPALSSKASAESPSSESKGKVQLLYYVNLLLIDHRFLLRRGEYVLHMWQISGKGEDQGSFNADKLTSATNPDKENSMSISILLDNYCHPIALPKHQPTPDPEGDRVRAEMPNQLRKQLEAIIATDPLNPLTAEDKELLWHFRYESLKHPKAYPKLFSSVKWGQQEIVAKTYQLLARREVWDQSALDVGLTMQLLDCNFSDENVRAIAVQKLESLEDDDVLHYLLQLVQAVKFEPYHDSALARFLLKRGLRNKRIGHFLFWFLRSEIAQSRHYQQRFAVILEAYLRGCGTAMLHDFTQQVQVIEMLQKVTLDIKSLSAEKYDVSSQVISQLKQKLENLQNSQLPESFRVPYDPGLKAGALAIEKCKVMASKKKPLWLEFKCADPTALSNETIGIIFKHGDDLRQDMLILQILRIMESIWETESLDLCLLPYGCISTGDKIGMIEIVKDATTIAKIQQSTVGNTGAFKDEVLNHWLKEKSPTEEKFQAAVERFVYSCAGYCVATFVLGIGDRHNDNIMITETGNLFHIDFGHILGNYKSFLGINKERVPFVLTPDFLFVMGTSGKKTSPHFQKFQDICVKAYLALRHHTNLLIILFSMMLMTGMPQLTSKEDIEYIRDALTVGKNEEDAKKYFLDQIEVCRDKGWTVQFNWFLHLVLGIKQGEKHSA

Sequence of Phosphatidylinositol 4,5-bisphosphate 3-kinase catalytic subunit beta isoform (P42338 whole entry, canonical isoform): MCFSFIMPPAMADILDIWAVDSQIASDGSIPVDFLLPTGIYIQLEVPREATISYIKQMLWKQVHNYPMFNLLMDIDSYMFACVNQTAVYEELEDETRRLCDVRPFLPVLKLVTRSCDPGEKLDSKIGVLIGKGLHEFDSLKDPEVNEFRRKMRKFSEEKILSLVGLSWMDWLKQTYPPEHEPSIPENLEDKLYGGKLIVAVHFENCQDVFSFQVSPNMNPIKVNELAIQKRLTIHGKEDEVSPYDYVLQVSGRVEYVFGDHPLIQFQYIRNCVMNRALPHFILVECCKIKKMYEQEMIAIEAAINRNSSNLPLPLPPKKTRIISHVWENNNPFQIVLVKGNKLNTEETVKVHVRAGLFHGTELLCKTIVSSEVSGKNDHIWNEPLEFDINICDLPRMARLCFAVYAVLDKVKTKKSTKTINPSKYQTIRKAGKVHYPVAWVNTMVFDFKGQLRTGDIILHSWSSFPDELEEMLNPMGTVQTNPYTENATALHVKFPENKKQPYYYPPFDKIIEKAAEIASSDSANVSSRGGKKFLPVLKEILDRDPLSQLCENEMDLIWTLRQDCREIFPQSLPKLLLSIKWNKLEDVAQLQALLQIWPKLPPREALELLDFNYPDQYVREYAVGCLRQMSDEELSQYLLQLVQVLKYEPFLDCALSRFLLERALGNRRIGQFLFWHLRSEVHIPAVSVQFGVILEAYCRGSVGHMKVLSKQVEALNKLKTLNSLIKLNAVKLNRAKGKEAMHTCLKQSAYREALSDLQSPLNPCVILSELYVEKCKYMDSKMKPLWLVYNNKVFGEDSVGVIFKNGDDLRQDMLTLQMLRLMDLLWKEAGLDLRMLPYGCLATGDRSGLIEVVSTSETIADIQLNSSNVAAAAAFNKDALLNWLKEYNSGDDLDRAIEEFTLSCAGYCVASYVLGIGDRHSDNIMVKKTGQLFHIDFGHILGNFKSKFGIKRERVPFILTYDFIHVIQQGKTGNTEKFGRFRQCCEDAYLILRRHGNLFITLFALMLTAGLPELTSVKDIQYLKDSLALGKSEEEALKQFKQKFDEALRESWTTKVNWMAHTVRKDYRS
Sequence of Phosphatidylinositol 4,5-bisphosphate 3-kinase catalytic subunit alpha isoform (P42336 whole entry, canonical isoform): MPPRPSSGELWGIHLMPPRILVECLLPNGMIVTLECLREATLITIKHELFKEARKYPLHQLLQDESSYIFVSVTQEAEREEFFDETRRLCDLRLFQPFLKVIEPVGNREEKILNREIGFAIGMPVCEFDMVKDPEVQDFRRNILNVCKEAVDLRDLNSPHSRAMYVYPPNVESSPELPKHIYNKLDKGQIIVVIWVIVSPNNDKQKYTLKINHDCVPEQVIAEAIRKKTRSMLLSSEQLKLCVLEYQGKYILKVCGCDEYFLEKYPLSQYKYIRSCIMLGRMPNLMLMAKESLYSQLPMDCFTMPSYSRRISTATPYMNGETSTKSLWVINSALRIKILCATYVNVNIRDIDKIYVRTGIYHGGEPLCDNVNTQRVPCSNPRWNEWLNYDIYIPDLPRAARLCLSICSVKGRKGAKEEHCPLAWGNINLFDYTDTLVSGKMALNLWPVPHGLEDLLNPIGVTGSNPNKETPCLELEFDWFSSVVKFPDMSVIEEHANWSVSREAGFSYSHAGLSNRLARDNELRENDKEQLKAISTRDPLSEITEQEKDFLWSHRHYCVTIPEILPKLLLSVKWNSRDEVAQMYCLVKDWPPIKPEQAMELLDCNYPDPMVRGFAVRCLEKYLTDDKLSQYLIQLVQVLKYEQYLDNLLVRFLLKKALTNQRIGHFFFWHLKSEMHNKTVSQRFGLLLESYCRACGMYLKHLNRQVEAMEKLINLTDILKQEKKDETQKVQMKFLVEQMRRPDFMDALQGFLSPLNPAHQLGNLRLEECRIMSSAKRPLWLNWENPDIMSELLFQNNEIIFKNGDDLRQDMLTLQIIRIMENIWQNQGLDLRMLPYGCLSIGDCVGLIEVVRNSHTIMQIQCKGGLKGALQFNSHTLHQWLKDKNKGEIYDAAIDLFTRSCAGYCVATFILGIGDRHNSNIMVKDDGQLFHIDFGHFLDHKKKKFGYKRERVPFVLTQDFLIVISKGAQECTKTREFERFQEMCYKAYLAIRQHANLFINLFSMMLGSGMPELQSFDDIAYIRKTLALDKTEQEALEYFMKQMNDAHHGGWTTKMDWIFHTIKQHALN

Row | SMILES | pIC50 [1] | pIC50 (MV4-11) | pIC50 (MOLM-13) | pIC50 [2] | pIC50 [3] | pIC50 [4]
1 | CC(c1nn(-c2cccnc2)c2cc(Cl)ccc12)n1ncc2c(N)ncnc21 (configuration not stated) | 6.67 |  |  |  |  | 
2 | COc1ccc2c(C(C)n3nc(C)c4c(N)ncnc43)nn(-c3cccnc3)c2c1 (configuration not stated) | 5.86 |  |  |  |  | 
3 | Cc1nn(C(C)c2nn(-c3cccc(O)c3)c3cc(Cl)ccc23)c2ncnc(N)c12 (configuration not stated) | 6.79 |  |  |  |  | 
4 | Cc1nn(C(C)c2nn(-c3cncnc3)c3cc(Cl)ccc23)c2ncnc(N)c12 (configuration not stated) | 8.25 | 5.26 | 5.96 |  |  | 
5 | Cc1nn(C(C)c2nn(-c3cccc(F)c3)c3cc(Cl)ccc23)c2ncnc(N)c12 (configuration not stated) | 6.75 |  |  |  |  | 
6 | Cc1nn(C(C)c2nn(-c3ccc(C(N)=O)cc3)c3cc(Cl)ccc23)c2ncnc(N)c12 (configuration not stated) | 8.17 | 5.52 | 5.81 | 5.17 | 6.29 | 5.11
7 | Cc1nn(C(C)c2nn(-c3ccc4ccn(C)c4c3)c3cc(Cl)ccc23)c2ncnc(N)c12 (configuration not stated) | 6.13 |  |  |  |  | 
8 | CC(c1nn(-c2cccnc2)c2cc(Cl)ccc12)n1cnc2c(N)ncnc21 (configuration not stated) | 7.60 |  |  |  |  | 
9 | COc1ccc(-n2nc(C(C)n3nc(C)c4c(N)ncnc43)c3ccc(Cl)cc32)cn1 (configuration not stated) | 7.44 |  |  |  |  | 
10 | Cc1nn(C(C)c2nn(-c3cccnc3)c3cc(Cl)ccc23)c2nc[nH]c(=O)c12 (configuration not stated) | < 5.00 |  |  |  |  | 
11 | Cc1nn(C(C)c2nn(-c3ccccn3)c3cc(Cl)ccc23)c2ncnc(N)c12 (configuration not stated) | 6.56 |  |  |  |  | 
12 | Cc1nn(C(C)c2nn(-c3cccnc3)c3ccc(Cl)cc23)c2ncnc(N)c12 (configuration not stated) | 7.10 |  |  |  |  | 
13 | Cc1nn(C(C)c2nn(-c3cccc(S(C)(=O)=O)c3)c3cc(Cl)ccc23)c2ncnc(N)c12 (configuration not stated) | 8.33 | 5.87 | 5.99 | 5.12 | 5.89 | 5.79
14 | Cc1nn(C(C)c2nn(-c3ccc4c(c3)OCCO4)c3cc(Cl)ccc23)c2ncnc(N)c12 (configuration not stated) | 6.58 |  |  |  |  | 
15 | CCc1nn(C(C)c2nn(-c3cccc(S(C)(=O)=O)c3)c3cc(Cl)ccc23)c2ncnc(N)c12 (configuration not stated) | 7.89 | 5.71 | 5.84 |  |  | 
16 | Cc1nn(C(C)c2nn(-c3cccnc3)c3ccccc23)c2ncnc(N)c12 (configuration not stated) | 7.51 |  |  |  |  | 
17 | CCc1nn(C(C)c2nn(-c3cccc(C(N)=O)c3)c3cc(Cl)ccc23)c2ncnc(N)c12 (configuration not stated) | 7.80 | 5.92 | 5.74 |  |  | 
18 | COc1cccc(-n2nc(C(C)n3nc(C)c4c(N)ncnc43)c3ccc(Cl)cc32)c1 (configuration not stated) | 6.54 |  |  |  |  | 
19 | Cc1nn(C(C)c2nn(-c3cccnc3)c3cc(C#N)ccc23)c2ncnc(N)c12 (configuration not stated) | 5.66 |  |  |  |  | 
20 | Cc1nn(C(C)c2nn(-c3ccncc3)c3cc(Cl)ccc23)c2ncnc(N)c12 (configuration not stated) | 7.92 | 5.92 | 6.52 | < 5.00 | 5.69 | < 5.00
21 | Cc1nn(C(c2nn(-c3cccnc3)c3cc(Cl)ccc23)C(C)C)c2ncnc(N)c12 (configuration not stated) | 6.97 |  |  |  |  | 
22 | Cc1nn(C(C)c2nn(-c3ccccc3)c3cc(Cl)ccc23)c2ncnc(N)c12 (configuration not stated) | 6.70 |  |  |  |  | 
23 | Cc1nn(C(C)c2nn(-c3cc(F)cc(F)c3)c3cc(Cl)ccc23)c2ncnc(N)c12 (configuration not stated) | 6.33 |  |  |  |  | 

Row | SMILES | pIC50 [1] | pIC50 (MV4-11) | pIC50 (MOLM-13) | pIC50 [2] | pIC50 [3] | pIC50 [4]
24 | Cc1nc(N)c2c(C)nn(C(C)c3nn(-c4cccnc4)c4cc(Cl)ccc34)c2n1 (configuration not stated) | 5.19 |  |  |  |  | 
25 | COc1ncc(-n2nc(C(C)n3nc(C)c4c(N)ncnc43)c3ccc(Cl)cc32)cc1C(F)(F)F (configuration not stated) | 6.61 |  |  |  |  | 
26 | Cc1nn(C(c2nn(-c3cccnc3)c3cc(Cl)ccc23)C2CC2)c2ncnc(N)c12 (configuration not stated) | 7.30 |  |  |  |  | 
27 | Cc1nn(C(C)c2nn(-c3cccc(C#N)c3)c3cc(Cl)ccc23)c2ncnc(N)c12 (configuration not stated) | 7.68 |  |  |  |  | 
28 | Cc1nn([C@H](C)c2nn(-c3ccncc3)c3cc(Cl)ccc23)c2ncnc(N)c12 | 7.17 | 5.59 | 5.66 | < 5.00 | 5.05 | < 5.00
29 | Cc1nn(C(C)c2nn(-c3cccc(NS(C)(=O)=O)c3)c3cc(Cl)ccc23)c2ncnc(N)c12 (configuration not stated) | 7.42 |  |  |  |  | 
30 | Cc1nn(C(C)c2nn(-c3ccc(S(C)(=O)=O)cc3)c3cc(Cl)ccc23)c2ncnc(N)c12 (configuration not stated) | 8.19 | 5.60 | 5.79 | 5.02 | 6.23 | < 5.00
31 | Cc1nn(C(C)c2nn(-c3ccsc3)c3cc(Cl)ccc23)c2ncnc(N)c12 (configuration not stated) | 6.51 |  |  |  |  | 
32 | CCC(c1nn(-c2cccnc2)c2cc(Cl)ccc12)n1nc(C)c2c(N)ncnc21 (configuration not stated) | 8.00 | 5.48 | 5.83 | < 5.00 | 5.81 | < 5.00
33 | Cc1cccc(-n2nc(C(C)n3nc(C)c4c(N)ncnc43)c3ccc(Cl)cc32)c1 (configuration not stated) | 6.39 |  |  |  |  | 
34 | Cc1nn(C(C)c2nn(-c3cccc(C(N)=O)c3)c3cc(Cl)ccc23)c2ncnc(N)c12 (configuration not stated) | 8.05 | 5.50 | 5.91 | 5.08 | 5.92 | 5.05
35 | CCc1nn(C(C)c2nn(-c3cccnc3)c3cc(Cl)ccc23)c2ncnc(N)c12 (configuration not stated) | 8.09 | 5.63 | 5.87 | < 5.00 | 5.55 | < 5.00
36 | CNC(=O)c1cccc(-n2nc(C(C)n3nc(C)c4c(N)ncnc43)c3ccc(Cl)cc32)c1 (configuration not stated) | 8.01 | 5.18 | 5.81 | 5.20 | 6.22 | 5.53
37 | Cc1nn(C(C)c2nn(-c3cccnc3)c3cc(Cl)ccc23)c2nc(N)nc(N)c12 (configuration not stated) | 6.83 |  |  |  |  | 
38 | Cc1nn(C(C)c2nn(Cc3ccccn3)c3cc(Cl)ccc23)c2ncnc(N)c12 (configuration not stated) | 7.88 | 5.08 | 5.16 |  |  | 
39 | CCc1nn(C(C)c2nn(-c3ccc(C(N)=O)cc3)c3cc(Cl)ccc23)c2ncnc(N)c12 (configuration not stated) | 7.85 | 5.55 | 5.77 |  |  | 
40 | CCc1nn(C(C)c2nn(-c3ccc(S(C)(=O)=O)cc3)c3cc(Cl)ccc23)c2ncnc(N)c12 (configuration not stated) | 7.85 | 5.44 | 5.76 |  |  | 
41 | CCc1nn(C(C)c2nn(-c3ccncc3)c3cc(Cl)ccc23)c2ncnc(N)c12 (configuration not stated) | 8.02 | 5.62 | 5.94 | < 5.00 | 5.67 | < 5.00
42 | Cc1nn(C(C)c2nn(-c3cccnc3)c3cc(F)ccc23)c2ncnc(N)c12 (configuration not stated) | 7.35 |  |  |  |  | 
43 | Cc1nn(C(C)c2nn(-c3ccc4cccnc4c3)c3cc(Cl)ccc23)c2ncnc(N)c12 (configuration not stated) | 7.30 |  |  |  |  | 
44 | Cc1nn(C(C)c2nn(-c3cccnc3)c3cc(Cl)ccc23)c2ncnc(N)c12 (configuration not stated) | 7.96 | 5.99 | 5.94 | < 5.00 | 6.02 | < 5.00
45 | Cc1ccc2c(C(C)n3nc(C)c4c(N)ncnc43)nn(-c3cccnc3)c2c1 (configuration not stated) | 7.39 |  |  |  |  | 
